Data on eleven compounds can be found in patent publication US9464064B2, “HCV helicase inhibitors and methods of use thereof” (University of Kansas, priority 2011, dated 2016).

One test concerns the target T1, NS3h_2a (Hepatitis C virus genotype 2a, UniProt Q99IB8).
T1 construct: truncated C-terminally His-tagged NS3 proteins lacking the N-terminal protease, called NS3h; His-tag (C); made in house
In words: RNA helicase assay (three-stranded RNA substrate). Format: biochemical, hepatitis C virus genotype 2a(JFH1). The protocol: To act as antivirals in cells, it is also important for an HCV helicase inhibitor to inhibit the activity of the NS3h on RNA. […] As with protein specificity, no differences were uncovered regarding substrate specificity for any of the compounds tested. In other words, none of the compounds preferred to act either on DNA or RNA substrates.

In the next test the target is T2, NS3h_1b (Hepatitis C virus genotype 1b, UniProt Q9WMX2).
T2 construct: truncated C-terminally His-tagged NS3 proteins lacking the N-terminal protease, called NS3h; His-tag (C); made in house
In words: ATPase assay without RNA. The format is biochemical, hepatitis C virus genotype 1b(con1). The protocol:
A modified “malachite green” assay (Lanzetta, et al. (1979) Anal. Biochem. 100:95-97) was used to measure ATP hydrolysis. Fifty μL reactions contained 25 mM MOPS pH 6.5, 5 mM MgCl2, 2 mM ATP, 5 μg/mL BSA, 0.01% (v/v) TWEEN 20, 0.05 mM DTT, and poly(U) RNA (Saint Louis, Mo.) as indicated. Reactions were initiated by adding NS3h_1b(con1). Reactions were incubated for 15 minutes at 37° C. then stopped by mixing 40 μL of the reaction into 200 μL of the malachite green reagent (3 volumes 0.045% (w/v) malachite green, 1 volume 4.2% ammonium molybdate in 4N HCl, 0.05 volume of 20% TWEEN 20). […] Absorbance at 630 nm was proportional to the concentration of phosphate produced; free phosphate produced was measured against a standard curve.
A simple explanation for the ability of some of the primuline derivatives to inhibit helicase and protease with similar potency would be that the compounds acted by simply aggregating or denaturing the enzyme. To test for irreversible inhibition, NS3h was incubated with 100 μM of each compound, diluted and then assayed for its ability to unwind DNA under standard conditions. […] In a second test for a simple aggregation mechanism, each compound was tested for its ability to inhibit NS3-catalyzed ATP hydrolysis. ATP hydrolysis fuels the unwinding reaction and NS3 hydrolyzes ATP both in the presence and absence of DNA or RNA; nucleic acid stimulates NS3 catalyzed ATP hydrolysis about 50-fold. […] To test this hypothesis, ATPase assays were performed in the presence of various concentrations of each primuline derivative, under conditions similar to those used to monitor effects on DNA and RNA unwinding. Far more of each compound was needed to inhibit NS3-catalyzed ATP hydrolysis than was needed to inhibit the helicase activity, or, in some cases, NS3 protease activity (Table 11).

The target of another test is T3, NS3h_1b(con1) (Hepatitis C virus genotype 1b, UniProt Q9WMX2).
T3 construct: truncated C-terminally His-tagged NS3 proteins lacking the N-terminal protease, called NS3h; His-tag (C); made in house
In words: RNA-stimulated ATP hydrolysis, pH 7.5, HCV. Format: biochemical, hepatitis C virus genotype 1b(con1). The protocol:
(§1) To compare the effect of compounds on HCV NS3h_1b (con1) to NS3h_DV2, reactions were performed with 2 nM of either enzyme in 25 mM Tris pH 7.5, 1.25 mM MgCl2, 1.0 mM ATP, 10% DMSO, 5 μg/ml BSA, 0.01% (v/v) TWEEN 20, 0.05 mM DTT, and 10 μM poly(U) RNA at 37° C.
To further profile compound specificity, it was determined whether the compounds would inhibit homologous NS3h expressed by the Dengue virus (NS3h_DV2). […] The same assays were also repeated with HCV NS3h_1b(con1) for comparison. […] However, most of the primuline derivatives were relatively potent inhibitors of RNA-stimulated ATP hydrolysis catalyzed by the Dengue enzyme under the same conditions.

The next test concerns the target T4, NS3h_DV2 (Dengue virus type 2, UniProt P29990).
T4 construct: made in house
In words: RNA-stimulated ATP hydrolysis, pH 7.5, Dengue. The format is biochemical. The following applies: 10 μM poly(U) RNA, read-out: ATPase w/RNA NS3h_DV2 IC50 (μM) ± SD. As to the method:
as §1
To further profile compound specificity, it was determined whether the compounds would inhibit homologous NS3h expressed by the Dengue virus (NS3h_DV2). […] The same assays were also repeated with HCV NS3h_1b(con1) for comparison.

For the next test, the target named is scNS4A-NS3 (Hepatitis C virus genotype 1b, UniProt Q9WMX2). In words: NS3 protease assay (ENZOLYTE 520), full-length. Set-up: other: average of two sets; There is also a His tag. Format: biochemical, hepatitis C virus genotype 1b(con1). As to the method: (§2) All oligonucleotides were purchased from Integrated DNA Technologies (IDT, Coralville, Iowa). Primuline derivatives were synthesized and purified as described herein. Three different NS3 proteins were used in this study. Two were truncated C-terminally His-tagged NS3 proteins lacking the N-terminal protease, called NS3h, the third was a full-length NS3 with the portion of NS4A needed for protease activation fused to its N-terminus, called scNS4A-NS3 (Howe, et al. (1999) Protein Sci. 8:1332-41), and the fourth was a 23 kDa scNS4A-NS3 protease fragment lacking the helicase domains, called scNS4A-NS3p (Protein One, Rockville, Md.). NS3h was expressed from two different HCV strains. NS3h_1b(con1) was from the con1 strain of genotype 1b (GENBANK accession AB114136), and NS3h_2a(JFH1) was from the JFH1 strain of HCV genotype 2a (GENBANK accession AJ238799). […] His-tagged recombinant NS3h_1b(con1), NS3h_2a(JFH1), and scNS4A-NS3 (also from genotype 1b(con1)) were expressed, and purified as previously described (Frick, et al. (2010) supra; Lam, et al. (2003) J. Virol. 77:3950-3961). The scNS4A-NS3p (genotype 1b) was from Protein One. A plasmid expressing NS3h from dengue virus strain 2 (NS3h_DV2)(GENBANK accession 2BMF) is known in the art (Xu, et al. (2005) J. Virol. 79:10278-10288), and used to express and purify NS3h_DV2 (Belon, et al. (2010) supra)
(§3) All NS3 protease assays were carried out using the 5-Carboxyfluorescein-labeled substrate from the AnaSpec. ENZOLYTE 520 Protease Assay Kit (AnaSpec, San Jose, Calif.). Each assay contained 5 nM scNS4A-NS3 or 50 nM scNS4A-NS3p, […], 5% DMSO and 1× Anaspec HCV protease assay buffer. Assays were carried out in a total volume of 20 μl in black 384-well plates with fluorescence at 520 nm measured using a BMG FLUOstar Omega fluorescence spectrophotometer. Reactions were performed with eight concentrations of a two-fold dilution series of each compound (in duplicate) starting at 100 μM.

The target of the next test is T5, scNS4A-NS3p (UniProt P26663).
T5 construct: fused on or other part: NS4A cofactor peptide, from the same polyprotein, fused to the NS3 protease fragment
In words: NS3 protease assay (ENZOLYTE 520), protease fragment. The conditions noted are these: read-out: Protease ScNS4a-NS3p IC50 (μM) ± SD; one set of assays. Format: biochemical, hepatitis C virus genotype 1b. The protocol:
as §2, §3

Bounds are passed on as bounds.

T4 sequence (P29990 1646-2093): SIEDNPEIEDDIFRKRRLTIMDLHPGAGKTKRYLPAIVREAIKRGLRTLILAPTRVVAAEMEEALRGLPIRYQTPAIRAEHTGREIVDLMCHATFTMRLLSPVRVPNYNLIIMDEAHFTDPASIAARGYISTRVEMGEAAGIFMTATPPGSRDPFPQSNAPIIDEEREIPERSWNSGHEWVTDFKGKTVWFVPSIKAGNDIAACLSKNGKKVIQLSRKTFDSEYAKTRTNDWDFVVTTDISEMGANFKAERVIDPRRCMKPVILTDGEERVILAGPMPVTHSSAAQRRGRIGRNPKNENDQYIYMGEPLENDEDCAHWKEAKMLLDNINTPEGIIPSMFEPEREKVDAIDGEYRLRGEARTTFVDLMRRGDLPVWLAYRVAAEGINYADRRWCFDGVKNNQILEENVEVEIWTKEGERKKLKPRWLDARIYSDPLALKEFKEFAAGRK
Chain of scNS4A-NS3 (Q9WMX2 1027-1657): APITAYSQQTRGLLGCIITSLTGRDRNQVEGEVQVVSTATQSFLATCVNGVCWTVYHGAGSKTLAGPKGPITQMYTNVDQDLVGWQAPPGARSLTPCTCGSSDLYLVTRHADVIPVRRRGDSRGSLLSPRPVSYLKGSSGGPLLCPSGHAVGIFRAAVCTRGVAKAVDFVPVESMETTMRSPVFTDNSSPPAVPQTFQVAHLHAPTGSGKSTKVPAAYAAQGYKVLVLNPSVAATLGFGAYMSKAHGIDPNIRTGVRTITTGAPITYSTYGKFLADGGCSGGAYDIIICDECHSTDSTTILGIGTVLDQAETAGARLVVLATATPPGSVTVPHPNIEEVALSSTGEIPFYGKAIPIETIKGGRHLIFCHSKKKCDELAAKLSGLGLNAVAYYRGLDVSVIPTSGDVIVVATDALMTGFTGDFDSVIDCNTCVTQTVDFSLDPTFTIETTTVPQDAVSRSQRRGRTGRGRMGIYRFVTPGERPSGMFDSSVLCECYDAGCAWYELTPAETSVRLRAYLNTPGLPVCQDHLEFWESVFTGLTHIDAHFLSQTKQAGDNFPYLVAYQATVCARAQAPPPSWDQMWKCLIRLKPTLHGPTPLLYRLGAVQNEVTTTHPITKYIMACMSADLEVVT
T2 sequence (Q9WMX2 1192-1657): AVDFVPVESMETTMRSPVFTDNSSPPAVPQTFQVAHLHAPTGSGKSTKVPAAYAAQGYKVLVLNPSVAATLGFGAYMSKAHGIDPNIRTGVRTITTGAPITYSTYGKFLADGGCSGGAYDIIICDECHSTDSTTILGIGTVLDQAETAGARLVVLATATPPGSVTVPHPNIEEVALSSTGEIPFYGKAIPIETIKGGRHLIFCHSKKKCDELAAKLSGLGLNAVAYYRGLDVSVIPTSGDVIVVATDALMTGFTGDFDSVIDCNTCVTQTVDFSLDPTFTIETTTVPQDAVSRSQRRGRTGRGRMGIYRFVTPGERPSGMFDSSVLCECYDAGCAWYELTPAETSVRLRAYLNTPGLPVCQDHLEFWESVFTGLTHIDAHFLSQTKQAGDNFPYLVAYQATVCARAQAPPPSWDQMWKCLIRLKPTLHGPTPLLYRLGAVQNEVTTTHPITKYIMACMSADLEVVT
T3 sequence (Q9WMX2 1192-1657): as above
T5 sequence (P26663 1027-1657): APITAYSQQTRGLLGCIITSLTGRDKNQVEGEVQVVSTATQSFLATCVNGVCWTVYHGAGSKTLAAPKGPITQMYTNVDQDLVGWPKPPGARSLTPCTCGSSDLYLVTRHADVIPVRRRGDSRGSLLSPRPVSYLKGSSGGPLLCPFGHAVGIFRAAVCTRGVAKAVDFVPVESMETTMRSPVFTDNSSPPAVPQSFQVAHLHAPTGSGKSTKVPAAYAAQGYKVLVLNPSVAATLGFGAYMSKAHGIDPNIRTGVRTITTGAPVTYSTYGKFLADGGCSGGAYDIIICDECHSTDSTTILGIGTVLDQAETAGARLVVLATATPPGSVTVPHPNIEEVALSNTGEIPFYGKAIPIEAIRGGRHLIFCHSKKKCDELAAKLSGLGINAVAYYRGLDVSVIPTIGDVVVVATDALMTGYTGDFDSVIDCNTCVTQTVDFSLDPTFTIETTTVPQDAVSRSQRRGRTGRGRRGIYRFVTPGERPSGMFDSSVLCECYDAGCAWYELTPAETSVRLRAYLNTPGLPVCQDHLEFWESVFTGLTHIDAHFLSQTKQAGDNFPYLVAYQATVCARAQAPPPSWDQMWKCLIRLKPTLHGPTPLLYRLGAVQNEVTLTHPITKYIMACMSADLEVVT
T1 sequence (Q99IB8 1196-1661): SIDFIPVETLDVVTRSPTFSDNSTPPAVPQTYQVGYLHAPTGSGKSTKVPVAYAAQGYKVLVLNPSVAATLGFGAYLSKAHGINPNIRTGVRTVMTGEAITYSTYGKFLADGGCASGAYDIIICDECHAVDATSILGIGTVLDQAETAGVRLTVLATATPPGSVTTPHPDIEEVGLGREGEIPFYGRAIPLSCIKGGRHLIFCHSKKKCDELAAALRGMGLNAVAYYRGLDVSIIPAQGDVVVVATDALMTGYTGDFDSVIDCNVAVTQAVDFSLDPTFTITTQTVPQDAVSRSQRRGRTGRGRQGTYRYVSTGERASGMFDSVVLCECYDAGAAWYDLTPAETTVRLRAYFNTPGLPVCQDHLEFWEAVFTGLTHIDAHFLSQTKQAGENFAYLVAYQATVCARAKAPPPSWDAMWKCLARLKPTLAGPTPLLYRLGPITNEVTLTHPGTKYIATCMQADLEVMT

`Cc1ccc2nc(-c3ccc4nc(-c5ccc(NC(=O)c6ccc(N)cc6)cc5)sc4c3)sc2c1S(=O)(=O)O` [Compound 6, 2′-(4-(4-aminobenzamido)phenyl)-6-methyl-[2,6′-bibenzo[d]thiazole]-7-sulfonic acid]: the IC50 against NS3h_2a is 7 ± 3 µM; at NS3h_1b it was 194 ± 30 µM; against NS3h_1b(con1) it was 140 ± 3 µM; on NS3h_DV2 it was 12 ± 4 µM; on scNS4A-NS3, 39 ± 17 µM.
Consider `Cc1ccc2nc(-c3ccc4nc(-c5ccc(NC(=O)c6ccc(F)cc6)cc5)sc4c3)sc2c1S(=O)(=O)O.N` [Compound 7, 2′-(4-(4-fluorobenzamido)phenyl)-6-methyl-[2, bibenzo[d]thiazole]-7-sulfonic acid], for which the IC50 against NS3h_2a is 4 ± 2 µM; at scNS4A-NS3p, more than 100 µM; at NS3h_1b, 67 ± 30 µM; on NS3h_1b(con1), 73 ± 13 µM; at NS3h_DV2 it was 6 ± 1 µM; at scNS4A-NS3 it was 89 ± 47 µM.
For `Cc1ccc2nc(-c3ccc4nc(-c5ccc(NC(=O)c6ccc(C(F)(F)F)cc6)cc5)sc4c3)sc2c1S(=O)(=O)O` [Compound 12, 6-methyl-2′-(4-(4-(trifluoromethyl)benzamido)phenyl)-[2,6′-bibenzo[d]thiazole]-7-sulfonic acid], the IC50 on NS3h_2a came out at 3 ± 1 µM; on scNS4A-NS3p, 7 µM; at NS3h_1b it was 24 ± 5 µM; against NS3h_1b(con1) it was 16 ± 5 µM; at NS3h_DV2 it was 2 ± 0.5 µM; against scNS4A-NS3 it was 5 ± 1 µM.
As to `Cc1ccc2nc(-c3ccc4nc(-c5ccc(NC(=O)c6ccc(C(C)(C)C)cc6)cc5)sc4c3)sc2c1S(=O)(=O)O` [Compound 13, 2′-(4-(4-(tert-butyl)benzamido)phenyl)-6-methyl-[2,6′-bibenzo[d]thiazole]-7-sulfonic acid], the IC50 on NS3h_2a was determined as 9 ± 9 µM; on scNS4A-NS3p it was 93 µM; on NS3h_1b it was 150 ± 21 µM; on NS3h_1b(con1) it was 150 ± 40 µM; on NS3h_DV2, 8 ± 1 µM; at scNS4A-NS3, 56 ± 23 µM.
As to `Cc1ccc2nc(-c3ccc4nc(-c5ccc(NC(=O)c6ccc(Br)cc6)cc5)sc4c3)sc2c1S(=O)(=O)O` [Compound 15, 2′-(4-(4-bromobenzamido)phenyl)-6-methyl-[2,6′-bibenzo[d]thiazole]-7-sulfonic acid], the IC50 amounted to 4 ± 2 µM on NS3h_2a; 6.5 µM at scNS4A-NS3p; 50 ± 4 µM against NS3h_1b; 21 ± 1 µM against NS3h_1b(con1); 3 ± 0.8 µM at NS3h_DV2; 6 ± 1 µM on scNS4A-NS3.
Consider `Cc1ccc2nc(-c3ccc4nc(-c5ccc(NC(=O)c6cccc(Cl)c6)cc5)sc4c3)sc2c1S(=O)(=O)O` [Compound 17, 2′-(4-(3-chlorobenzamido)phenyl)-6-methyl-[2,6′-bibenzo[d]thiazole]-7-sulfonic acid], for which the IC50 was 6 ± 3.1 µM against NS3h_2a; 24 µM on scNS4A-NS3p; 74 ± 7 µM against NS3h_1b; 51 ± 3 µM at NS3h_1b(con1); 4 ± 0.6 µM on NS3h_DV2; more than 100 µM at scNS4A-NS3.
In the case of `Cc1ccc2nc(-c3ccc4nc(-c5ccc(NC(=O)c6ccc(Cl)c(Cl)c6)cc5)sc4c3)sc2c1S(=O)(=O)O` [Compound 18, 2′-(4-(3,4-dichlorobenzamido)phenyl)-6-methyl-[2,6′-bibenzo[d]thiazole]-7-sulfonic acid], the IC50 at NS3h_2a was 4 ± 2 µM; at scNS4A-NS3p, 6.4 µM; against NS3h_1b it was 44 ± 12 µM; against NS3h_1b(con1), 72 ± 13 µM; at NS3h_DV2 it was 4 ± 1 µM; at scNS4A-NS3 it was 13 ± 4 µM.
In the case of `Cc1ccc2nc(-c3ccc4nc(-c5ccc(NC(=O)c6cc(C(F)(F)F)cc(C(F)(F)F)c6)cc5)sc4c3)sc2c1S(=O)(=O)O` [Compound 24, 2′-(4-(3,5-bis(trifluoromethyl)benzamido)phenyl)-6-methyl-[2,6′-bibenzo[d]thiazole]-7-sulfonic acid], the IC50 at NS3h_2a was 14 ± 13 µM; on scNS4A-NS3p, 7.6 µM; against NS3h_1b, 141 ± 28 µM; on NS3h_1b(con1), more than 200 µM; on NS3h_DV2 it was 11 ± 2 µM; against scNS4A-NS3, 23 ± 15 µM.
Regarding `Cc1ccc2nc(-c3ccc4nc(-c5ccc(NC(=O)c6cc(C(F)(F)F)ccc6F)cc5)sc4c3)sc2c1S(=O)(=O)O` [Compound 25, 2′-(4-(2-fluoro-5-(trifluoromethyl)benzamido)phenyl)-6-methyl-[2,6′-bibenzo[d]thiazole]-7-sulfonic acid], the IC50 on NS3h_2a was 10 ± 3 µM; on scNS4A-NS3p, more than 100 µM; against NS3h_1b it was 61 ± 13 µM; on NS3h_1b(con1) it was 19 ± 2 µM; on NS3h_DV2, 7 ± 0.1 µM; on scNS4A-NS3, 51 ± 25 µM.
As to `Cc1ccc2nc(-c3ccc4nc(-c5ccc(NC(=O)c6ccc7nc(-c8ccc(N)cc8)sc7c6)cc5)sc4c3)sc2c1S(=O)(=O)O` [Compound 35, 2′-(4-(2-(4-aminophenyl)benzo[d]thiazole-6-carboxamido)phenyl)-6-methyl-[2,6′-bibenzo[d]thiazole]-7-sulfonic acid], the IC50 against NS3h_2a was 6 ± 5.4 µM; at scNS4A-NS3p, 20 µM; on NS3h_1b, more than 200 µM; at NS3h_1b(con1) it was 150 ± 2 µM; on scNS4A-NS3, 7 ± 1 µM.
As for `Cc1ccc2nc(-c3ccc4nc(-c5ccc6nc(-c7ccc8nc(-c9ccc(N)cc9)sc8c7)sc6c5)sc4c3)sc2c1S(=O)(=O)O` [Compound P4, 2′″-(4-aminophenyl)-6-methyl-[2,6′:2″,6′″-quaterbenzo[d]thiazole]-7-sulfonic acid], the IC50 was 3 ± 1.3 µM at NS3h_2a; 4.9 µM on scNS4A-NS3p; 43 ± 10 µM against NS3h_1b; 0.94 ± 0.7 µM on NS3h_DV2; 2 ± 1 µM against scNS4A-NS3.
